Measurements from patent publication US20210198284A1, “GOLD COMPOSITIONS AND METHODS OF USE THEREOF” (THE UNIVERSITY OF MASSACHUSETTS, priority 2018, published 2021).

What was measured:
[1] = Log P determination (n-octanol/water, FAAS); settings: n-octanol/water, gold by FAAS; for logP: Log P
Procedure: Log P Determination: Calibration curves. Milli-Q Water (150 mL) was added to n-octanol (150 mL), and the mixture was stirred for 3 days to allow both phases to reach saturation. The gold standard solution (1000 ppm Au in hydrochloric acid, Fisher Scientific) was diluted to 1, 2, 3, 4 and 5 ppm with n-octanol-saturated water, and the absorbance of the resulting solutions was measured by flame atomic absorption spectroscopy (FAAS, Agilent Technology 200 Series AA, equipped with a gold HC Lamp-Au coded). The absorbance data were plotted against Au concentration, and the resulting calibration curve was used for determining the concentration of the analogs in the aqueous phase.
To construct the standard calibration curve of the Au concentration in the n-octanol phase, compound 27 was used. The Au concentration in compound 27 was first calibrated against the aqueous gold standard. For this, 0.440 mg of compound 27 was weighed on a Sartorius MC5 microbalance, and then added to 22 mL of n-octanol-saturated water. […] For this, solutions of varying concentrations (0.99, 2.47, 4.94, 5.93, 9.88 ppm) of compound 27 in water-saturated n-octanol were prepared. The absorbance was measured by FAAS, and the data were plotted against the Au concentration to provide a second calibration curve, which was used for determining the Au concentration of the analogs in the n-octanol phase.
Determination of Au concentrations: Method 1. 0.5 to 1 mg of compound was weighed into a 2-mL Eppendorf tube containing 2 mL of n-octanol-saturated water. After shaking for about 4 h, the solution was centrifuged at 6000 rpm for 3 min. 1 mL of the supernatant was transferred to a new tube containing 1 mL of water-saturated n-octanol, and the mixture was shaken for 1 h. After centrifugation at 6000 rpm for 5 min, the two layers were collected and the gold concentration in each layer was determined by FAAS by comparing the absorbance to the first and second calibration curves.
Determination of Au concentrations: Method 2. […] For Method 2, 0.6 to 1 mg of compound was weighed into a 2-mL Eppendorf tube containing 1 mL of n-octanol-saturated water and 1 mL of water-saturated n-octanol. After shaking for 3-4 h, the mixture was centrifuged, and all liquid was transferred to a 15-mL tube. The liquid was then diluted with 2 mL of n-octanol-saturated saturated water and 2 mL of water-saturated n-octanol, and the mixture was shaken for another hour. After centrifugation at 6000 rpm for 5 min, the two layers were collected and the gold concentration in each layer was determined by FAAS by comparing the absorbance to the first and second calibration curves.
Log P was calculated as follows: log P=log[compound]oct/[compound]water

A. baumannii NCTC 13420 = assay: Antibacterial assay, MIC/MBC by broth microdilution (CLSI); type: cell-based; settings: A. baumannii NCTC 13420; repeated twice, a/b = both values
Procedure: (§1) Antibacterial assay. The minimum inhibitory concentrations (MICs) and the minimum bactericidal concentrations (MBCs) were determined by the broth microdilution method as described in the CLSI (The Clinical & Laboratory Standards Institute) guidelines (Performance standards for antimicrobial susceptibility testing: Clinical and Laboratory Standards Institute (CLSI), Twenty-Fifth informational supplement. Document M100-S25: […]; Vol. 35). All bacterial strains were cultured in cation-adjusted Muller Hinton broth (CAMHB) up to log-phase and then diluted to give a concentration of 7.5×10^5 CFU/mL. The gold complexes were dissolved in DMSO or water as stock solutions, which were then serially diluted two-fold in a 96-well plate. Aliquots (100 μL) of the dilutions were mixed with equal volumes of the bacterium suspension in a 96 well plate (in triplicates). The plates were incubated at 37° C. for 18 h without shaking. Negative and positive controls were included in the same well plate with wells having the culture medium only and bacteria solution only, respectively. The sample concentration that gave inhibition values above 90% were determined as MICs as calculated from absorbance values at 600 nm (OD600) obtained using a Tecan SPARK IOM plate reader. To determine minimum bactericidal concentrations (MBCs), agar plates were treated with 5 μL sample solutions from each well, and then incubated at 37° C. for 18 h without shaking. The sample concentration that gave no colony formed on agar plates were determined as MBCs.
(§2) Selection of bacteria. The ESKAPE pathogens were chosen as they are responsible for the majority of nosocomial infections and also as they provide a good scope of strains including both Gram-negative and Gram-positive species. A. baumannii NCTC 13420 was originally identified in 24 hospitals in the UK during 2000-2003, which produced OXA-51-like β-lactamases, and was highly resistant to ampicillin, piperacillin, piperacillin/tazobactam, ceftazidime, cefotaxime, gentamicin and ciprofloxacin. P. aeruginosa NCTC13437 produces VIM-10 metallo-carbapenemase and VEB-1 (Vietnamese extended-spectrum beta-lactamase). Wild-type strain E. cloacae NCTC 13405 (originally named E. cloacae 684) was isolated from patients at the London Hospital during 1982-1983. This strain has inducible AmpC β-lactamase and is resistant to ampicillin/amoxicillin and cefoxitin. K. pneumoniae ATCC 700603 was isolated from the urine of a hospitalized patient in Richmond, Va. in 1994, and it produces SHV-18 extended spectrum beta-lactamase (ESBL). JE2 (USA300) is a methicillin-resistant S. aureus (MRSA) strain, also resistant to beta-lactams, ciprofloxacin, tetracycline, macrolides (erythromycin), lincosamides (clindamycin), streptogramin B, and mupirocin. E. faecium ATCC 700221, a positive fecal VRE (vancomycin-resistant enterococcus) isolate, is resistant to several antibiotics including vancomycin and teicoplanin. The quality control strain, Gram-negative E. coli ATCC 25922, was included in all assays and validated with ciprofloxacin and […].

E. coli ATCC 25922 = assay: as above; type: cell-based; settings: repeated twice, a/b = both values
Procedure: as §1, §2

E. cloacae NCTC 13405 = assay: as above; type: cell-based; settings: for activity in words: E. cloacae
Procedure: as §1, §2

S. aureus JE2 (USA300) = assay: as above; type: cell-based; settings: for MIC values in words: S. aureus
Procedure: as §1, §2

P. aeruginosa NCTC 13437 = assay: as above; type: cell-based; settings: P. aeruginosa
Procedure: as §1, §2

[2] = system: K. pneumoniae ATCC 700603; assay: as above; type: cell-based; settings: K. pneumoniae ATCC 700603; repeated twice, a/b = both values
Procedure: as §1, §2

E. faecalis ATCC 700221 = assay: as above; type: cell-based; settings: repeated twice, a/b = both values
Procedure: as §1, §2

Structure (SMILES): CC[PH](CC)(CC)[Au][S][C@@H]1OC(COC(C)=O)[C@@H](OC(C)=O)[C@H](OC(C)=O)C1NC(C)=O (stereo partly drawn) [Compound 3, (3,4,6-Tri-O-acetyl-2-N-acetyl-1-thio-β-D-glucopyranosato) (triethylphosphine) gold (1)]
- logP [1]: 0.26

Structure (SMILES): CC[P+](CC)(CC)[Au-][S]c1ccc(SCC(=O)NC2[C@H](OC(C)=O)OC(COC(C)=O)[C@@H](OC(C)=O)[C@@H]2OC(C)=O)cc1 (stereo partly shown) [Compound 8]
- MIC (A. baumannii NCTC 13420): 76/19
- logP [1]: -0.36

Structure (SMILES): CC[P+](CC)(CC)[Au-][S][C@@H]1OC(CO)[C@@H](O)[C@H](O)C1NC(C)=O (stereo partly drawn) [Compound 12, (2-Acetamido-2-deoxy-1-thio-β-D-glucopyranosato)(triethylphosphine) gold(I)]
- MIC (E. coli ATCC 25922): 7/4
- logP [1]: -0.89

Structure (SMILES): CC[P+](CC)(CC)[Au-][S]c1ccc([N+](=O)[O-])cc1 [Compound 22, (4-Nitrobenzenethiolato)(triethylphosphine) gold(I)]
- activity in words (E. cloacae NCTC 13405): completely diminished the activity
- MIC values in words (S. aureus JE2 (USA300)): nanomolar range
- logP [1]: > 3
- Log P [1]: >3.28

Structure (SMILES): CC[P+](CC)(CC)[Au-][S]c1ccc(C(F)(F)F)cc1 [Compound 23, (4-(Trifluromethyl)benzenethiolato)(triethylphosphine) gold(I)]
- activity in words (E. cloacae NCTC 13405): completely diminished the activity
- logP [1]: > 3
- Log P [1]: >3.18

Structure (SMILES): CC[P+](CC)(CC)[Au-][S]CCO [Compound 24, (2-Mercaptoethanolato)(triethylphosphine) gold(I)]
- MIC (E. cloacae NCTC 13405; E. cloacae NCTC 13405, repeated twice, a/b = both values): 5/10
- activity in words (P. aeruginosa NCTC 13437): showed activity
- logP [1]: 1.19

Structure (SMILES): CC[P+](CC)(CC)[Au-][S]CC(=O)OC [Compound 25, (Methyl mercaptoacetatato) (triethylphosphine) gold(I)]
- MIC values in words (S. aureus JE2 (USA300)): nanomolar range
- logP [1]: 1.75

Structure (SMILES): CC[P+](CC)(CC)[Au-][S]CC(F)(F)F [Compound 26, (2,2,2-Trifluoroethanethiolato)(triethylphosphine) gold(I)]
- MIC values in words (S. aureus JE2 (USA300)): nanomolar range
- logP [1]: 2.08

Structure (SMILES): C[P+](C)(C)[Au-][Cl] [Compound 28, (Trimethylphosphine) gold chloride]
- MIC (A. baumannii NCTC 13420): 7/13
- MIC [2]: 7/13
- activity in words (P. aeruginosa NCTC 13437): showed activity
- logP [1]: 0.16

Structure (SMILES): Fc1ccc([P+]([Au-][Cl])(c2ccc(F)cc2)c2ccc(F)cc2)cc1 [Compound 33, (Tris(4-fluorphenyl)phosphine) gold chloride]
- MIC (E. faecalis ATCC 700221): 2/4
- logP [1]: > 4.04

Structure (SMILES): CC(=O)OCC1O[C@@H]([S][Au-][P+](C)(C)C)C(OC(C)=O)[C@@H](OC(C)=O)[C@@H]1OC(C)=O (stereo partly drawn) [Compound 35, (2,3,4,6-Tetra-O-acetyl-1-thio-β-D-glucopyranosato)(trimethylphosphine) gold(I)]
- MIC (A. baumannii NCTC 13420): 6/13
- activity in words (P. aeruginosa NCTC 13437): four-fold improvement in activity over 15
- logP [1]: 0.35

Structure (SMILES): CCCC[P+](CCCC)(CCCC)[Au-][S][C@@H]1OC(COC(C)=O)[C@@H](OC(C)=O)[C@H](OC(C)=O)C1OC(C)=O (stereo partly drawn) [Compound 36, (2,3,4,6-Tetra-O-acetyl-1-thio-β-D-glucopyranosato)(tri-n-butylphosphine) gold(I)]
- MIC (E. faecalis ATCC 700221): 3/5
- logP [1]: > 4.32

Structure (SMILES): CC(=O)OCC1O[C@@H]([S][Au-][P+](c2ccccc2)(c2ccccc2)c2ccccc2)C(OC(C)=O)[C@@H](OC(C)=O)[C@@H]1OC(C)=O (stereo partly drawn) [Compound 37, (2,3,4,6-Tetra-O-acetyl-1-thio-β-D-glucopyranosato)(triphenylphosphine) gold(I)]
- MIC (S. aureus JE2 (USA300); S. aureus JE2 (USA300), repeated twice, a/b = both values): 1/2
- logP [1]: > 3.87

Structure (SMILES): COc1ccc([P+]([Au-][S][C@@H]2OC(COC(C)=O)[C@@H](OC(C)=O)[C@H](OC(C)=O)C2OC(C)=O)(c2ccc(OC)cc2)c2ccc(OC)cc2)cc1 (stereo partly drawn) [Compound 38, (2,3,4,6-Tetra-O-acetyl-1-thio-β-D-glucopyranosato)(tris(4-methoxyphenyl)phosphine) gold(I)]
- MIC (E. faecalis ATCC 700221): 2/4
- logP [1]: > 3.03

Structure (SMILES): CC(=O)OCC1O[C@@H]([S][Au-][P+](c2ccc(F)cc2)(c2ccc(F)cc2)c2ccc(F)cc2)C(OC(C)=O)[C@@H](OC(C)=O)[C@@H]1OC(C)=O (stereo partly drawn) [Compound 39, (2,3,4,6-Tetra-O-acetyl-1-thio-β-D-glucopyranosato)(tris(4-fluorophenyl)phosphine)gold(I)]
- MIC (E. faecalis ATCC 700221): 2/5
- logP [1]: > 3.04

Structure (SMILES): CC(=O)OCC1O[C@@H]([S][Au-][P+](c2ccc(C(F)(F)F)cc2)(c2ccc(C(F)(F)F)cc2)c2ccc(C(F)(F)F)cc2)C(OC(C)=O)[C@@H](OC(C)=O)[C@@H]1OC(C)=O (stereo partly drawn) [Compound 40, (2,3,4,6-Tetra-O-acetyl-1-thio-β-D-glucopyranosato)(tris(4-(trifluoromethyl)phenylphosphine)) gold(I)]
- logP [1]: > 3.55
